Legend:
[1] = tested on: RH30, CVCL_0041 rhabdomyosarcoma sarcoma line; assay: Effect on cell growth, paediatric sarcoma line RH30 (CellTiterFluor); assay type: cell-based, human; conditions: 48 h, HLPM medium
Description: (§1) Human tumour cells from two paediatric rhabdomyosarcoma-like sarcoma lines (“RD136, CVCL_1649”, FIG. 5a and “RH3O, CVCL_0041”, FIG. 5b) have been seeded in a 96-well plate in the presence of a concentration of 10 μM of compound, in a volume of 100 μL of “Gibco Human Like Plasma Medium” (Gibco HPLM_Thermo Fisher Scientific). The effect of compounds (Ia), (Ib) and (Ic) has been compared with that of the inhibitors IACS-010759 (IACS) and IM156 (metformin analogue) currently in clinical trials, Rotenone (ROT) and the apoptosis inducer staurosporine (STS). After 48 hours of treatment, the effect on the number of living cells has been evaluated using the “CellTiterFluor” kit from Promega, identically to FIG. 2b.
Human tumour cells from the paediatric rhabdomyosarcoma sarcoma line (“RH30, CVCL_0041”) have been seeded in a 96-well plate in the presence of a 10 μM or 25 μM concentration of compound, in a 100 μL volume of “Gibco Human Like Plasma Medium” (Gibco HPLM_Thermo Fisher Scientific). After 48 h of treatment, the effect of compounds (Ia), (Ie) and (If) on cell growth has been evaluated using the Promega “CellTiterFluor” kit as in FIG. 2b.

[2] = tested on: human tumour cells of a B cell lymphoma line (SUDHL-4, CVCL_0539); assay: In ovo xenograft model on the chorioallantoic membrane (CAM) of the chicken embryo; assay type: in vivo
Description: Preclinical evaluation analyses of the anti-tumour efficacy of compound (Ia) have been carried out using the xenograft model on the chorioallantoic membrane (CAM) of the chicken embryo. […] Treatments have been performed on days E11, E13, E15 and E17. At day E18, the upper CAM portions containing tumours have been removed and weighed, and the lower CAM fragments have been used to evaluate the presence of human cells indicative of metastases by RT-gPCR (polymerase chain reaction from an RNA sample). 0.0097 mg/kg Doxorubicin (DOXO) has been used as a positive control for treatment efficacy, compound (Ia) has been used at 3 different doses: 0.05 mg/kg, [2]: 0.15 mg/kg, and [3]: 0.45 mg/kg, and “IACS-010759” has been used at 2 different doses: 0.05 mg/kg, and [2]: 0.45 mg/kg. The negative control (denoted DMSO) represents treatment with the DMSO molecule diluent.

[3] = tested on: human B cell lymphoma cell line (RL, CVCL_1660); assay: Effect on cell growth, B cell lymphoma line RL (live cell count by flow cytometry); assay type: cell-based; conditions: 5 μM or 10 μM, 48 h, RPMI medium, FIG. 6
Description: Cells from the human B cell lymphoma cell line (“RL, CVCL_1660”), have been seeded at a density of 100,000 cells per well, in a 96-well plate in the presence of a concentration of 5 μM or 10 μM of compound, in a volume of 100 μL of RPMI medium. After 48 h of treatment, analyses of the effect on cell growth have been conducted by counting live cells using flow cytometry, as in FIG. 2a.

[4] = tested on: human B cell lymphoma cell line (Karpas422, CVCL_1325); assay: Effect on cell growth, B cell lymphoma line Karpas422 (live cell count by flow cytometry or CellTiterFluor); assay type: cell-based; conditions: 10 μM, 48 h, RPMI and HLPM medium, FIG. 2
Description: Cells from a human B cell lymphoma cell line (“Karpas422, CVCL_1325”) have been seeded at a density of 100,000 cells per well, in a 96-well plate in the presence of a 10 μM concentration of compound, in a volume of 100 μL of medium. After 48 h of treatment, analyses of the effect on cell growth have been conducted, either by counting live cells using flow cytometry (FIG. 2a), or using a biochemical fluorescence detection kit for live cells (FIG. 2b).
In conventional “Gibco RPMI1640/10°/0 SVF” medium, the number of living cells has been determined after double AnnexinV/PI labelling, and analysis using the flow cytometer known as “ATTUNE” (Thermo Fisher Scientific). In “Gibco Human Like Plasma Medium”, the number of live cells has been evaluated using the “CellTiterFluor” kit and after measurement of relative fluorescence units (RFU) according to the supplier's recommendations (Promega). The term DMSO in FIG. 2 corresponds to the control, i.e. identical medium with no added compound.

[5] = tested on: human B cell lymphoma line (RL line, CVCL_1660); assay: Seahorse analysis of oxygen consumption rate (OCR); assay type: cell-based; conditions: for inhibition of OCR: RL cells; for effect on mitochondrial respiration: increasing concentrations 1.2-10 μM, compared to rotenone or IACS-010759
Description: The analyser known as “Seahorse” allows evaluation mitochondrial respiration in real time by measuring Oxygen Consumption Rate (OCR). The experiments have been carried out according to the supplier's recommendations (“Agilent_Seahorse XFe96”). To achieve this, 150,000 cells per well of a human B cell lymphoma line (“RL line, CVCL_1660”) have been seeded in 180 μL of Agilent_Seahorse XF RPMI medium (supplemented with pyruvate and glucose) on a dedicated Agilent_Seahorse 96-well plate, pre-treated with a solution of CellTak according to the supplier's recommendations (Corning). After 30 min incubation in a CO2-free oven, the plate has been analysed with the “Seahorse” using a protocol allowing injection (indicated by arrows in FIG. 1) of increasing amounts of compound to obtain a final cumulative concentration of 1.2 μM, 2.5 μM, 5 μM and 10 μM, followed each time by an OCR reading (in pmol/min) for 10 min. Data normalisation has been carried out by cell counting, using a device known as the “Cytation 1/5 Cell Imaging Multi-Mode reader” (BioTek Instruments, Inc) coupled to the “Seahorse”.
A control is used (DMSO, curve with solid squares) in each figure and corresponds to the medium studied without addition of compound (addition only of the DMSO diluent from the molecule stocks). […] In addition, injection of increasing concentrations of compounds in accordance with the invention induces progressive inhibition of OCR, in a similar manner and in stages for compounds (Ib) and (Ic), and progressively for compound (Ia).

[6] = tested on: 31 human B and T cell lymphoma lines; assay: AnnexinV/PI cytometry, % apoptotic cells in 31 lymphoma lines; assay type: cell-based; conditions: compared with IACS-010759, FIG. 3
Description: Analyses of the effect on cell growth of compound (Ia) in accordance with the invention in comparison with compound “[…]” (denoted IACS) not in accordance with the invention have been conducted on a wide series of 31 human B and T cell lymphoma lines, after AnnexinV/PI labelling and analysis with the “ATTUNE” cytometer (Thermo Fisher Scientific). In addition to the number of living cells represented in FIG. 2a, this technology enables the % of cells undergoing apoptosis to be evaluated. The results have been represented in FIG. 3 in the form of a “HeatMap” with a black and white gradient, black representing the highest % of apoptotic cells.

[7] = tested on: human B cell lymphoma cell line (Karpas422, CVCL_1325); assay: IC50 on cell growth, Karpas422 (CellTiter-Fluor Cell Viability Assay); assay type: cell-based; conditions: KARPAS-422, Karpas422, RPMI 1640 (11 mM glucose) with 10% serum, 48 h
Description: These experiments have been performed using cells from a human B cell lymphoma cell line (“Karpas422, CVCL_1325”) which have been seeded in “RPMI 1640” medium (11 mM glucose) supplemented with 10% serum, in the presence of increasing concentrations of compounds.
After 48 h of treatment, analyses of the effect on cell growth have been conducted, using the “CellTiter-Fluor Cell Viability Assay” (Promega) live cell detection kit, as in FIG. 2b, and following the supplier's instructions.

[8] = tested on: RD136, CVCL_1649 rhabdomyosarcoma-like sarcoma line; assay: Effect on cell growth, paediatric sarcoma line RD136 (CellTiterFluor); assay type: cell-based, human; conditions: 10 μM, 48 h, HLPM medium, FIG. 5a
Description: as §1

[9] = dose 0.15 mg/kg (compound Ia [2])
[10] = dose 0.45 mg/kg (compound Ia [3], IACS [2])
[11] = 10 μM cumulative concentration, FIG. 1b

| Structure (SMILES) | effect on cell growth (number of living cells) ([1]; 10 μM or 25 μM, FIG. 7) | effect on cell growth (number of live tumour cells) [4] | inhibition of OCR [5, 11] | effect on mitochondrial respiration [5] | effect on cell growth (number of living cells) [8] | effect on cell growth (number of living cells) ([1]; 10 μM, FIG. 5b) | also measured |
| --- | --- | --- | --- | --- | --- | --- | --- |
| c1cnc(N2CCN(CCCCCCCN3CCN(c4ncccn4)CC3)CC2)nc1 [Compound Ie] | inhibit cell growth |  |  |  |  |  |  |
| COc1cccc2c1C(=O)c1c(O)c3c(c(O)c1C2=O)C[C@@](O)(C(=O)CO)C[C@@H]3O[C@H]1C[C@H](N)[C@H](O)[C@H](C)O1 [doxorubicin, Doxorubicin, reference compound] |  |  |  |  |  |  | regression in the number of metastases ([2]; 0.0097 mg/kg, lower CAM, RT-qPCR): 99%; reduction in primary tumour volume ([2]; 0.0097 mg/kg, treatments E11, E13, E15, E17, read at E18): 90% |
| c1cnc(NCCCCCCCCCCCCNC2=NCCN2)nc1 [Compound Ia, N′-(4,5-dihydro-1H-imidazol-2-yl)-N-pyrimidin-2-yl-dodecane-1,12-diamine] | inhibit cell growth | inhibit cell growth | Virtually complete inhibition of OCR | moderate and progressive effect |  |  | effect on cell growth [3]: inhibitory effect on cell growth; reduction in primary tumour volume [2, 9]: 73%; reduction in the relative number of metastases [2, 9]: 70%; reduction in primary tumour volume [2, 10]: 70%; reduction in the relative number of metastases [2, 10]: 72%; reduction in primary tumour volume ([2]; dose [1] 0.05 mg/kg): 48%; reduction in the relative number of metastases ([2]; dose [1] 0.05 mg/kg): 45%; toxicity (% of apoptotic cells) [6]: increased with respect to that of “IACS-010759” for a sub-group of 8 lines; IC50 [7]: 1.5 µM |
| Cl.Cl.c1ccc(N2CCN(CCCCCCCCCCCCN3CCN(c4ccccn4)CC3)CC2)nc1 [Compound Ic, 1-(2-pyridyl)-4-[12-[4-(2-pyridyl)piperazin-1-yl]dodecyl]piperazine dihydrochloride] |  | inhibit cell growth | Virtually complete inhibition of OCR | moderate and progressive effect | inhibits cell growth | inhibits cell growth |  |
| c1cnc(NCCCCCCCCCCCCNc2ncccn2)nc1 [Compound Id] |  |  |  |  | inhibits cell growth | inhibits cell growth | effect on cell growth [3]: inhibitory effect on cell growth |
| Cl.Cl.c1cnc(N2CCN(CCCCCCCCCCCCN3CCN(c4ncccn4)CC3)CC2)nc1 [Compound Ib, 2-[4-[12-(4-pyrimidin-2-ylpiperazin-1-yl)dodecyl]piperazin-1-yl]pyrimidine dihydrochloride] |  | inhibit cell growth | Virtually complete inhibition of OCR | moderate and progressive effect | inhibits cell growth | inhibits cell growth |  |
| C=C(C)[C@H]1Cc2c(ccc3c2O[C@@H]2COc4cc(OC)c(OC)cc4[C@@H]2C3=O)O1 [Rotenone, reference compound] |  |  |  |  |  |  | inhibition of OCR ([5]; 1.2 μM, FIG. 1a): instantaneous and almost complete inhibition of OCR |
| N/C(=N/c1cccc2ccccc12)SCCCCCCS/C(N)=N\c1cccc2ccccc12 [reference compound] |  |  |  |  |  |  | IC50 [7]: 15.1 µM |
| Cl.Cl.c1ccc(N2CCN(CCCCCCCN3CCN(c4ccccn4)CC3)CC2)nc1 [Compound If] | inhibit cell growth |  |  |  |  |  |  |

From patent publication US20250235454A1, “XOPHOS INHIBITORS FOR USE IN THE TREATMENT OF B-CELL LYMPHOMA” (CENTRE NATIONAL DE LA RECHERCHE SCIENTIFIQUE, priority 2022, published 2025)
